{"source": "patent US20220296627A1", "about": "“Cytidine Derivatives and Methods of Forming Cytidine Derivatives” (Aenorasis Commercial Company of Pharmaceutical and Medical …, priority 2019, published 2022)", "key": {"[1]": {"system": "A549/WT wild type human lung adenocarcinoma cell line", "assay": "Cell growth assay (SRB) in A549/WT", "type": "cell-based", "method": "(§1) Biological activities of the Gemcitabine derivative (which may be referred to as analogues) described above were evaluated with two assays: • 1. Cell growth assay using the SRB assay in cell lines A549/WT, SW1573/WT, PANC-01 and BXPC-3. • 2. MTT assay in human bladder cancer cell line T-24\n(§2) The following cell lines were tested: • A549/WT —wild type human lung adenocarcinoma cell line (1) • SW1573/WT —wild type non-small lung human cell line (2), • PANC-01—human pancreatic cancer cell line (3) • BXPC-3 -epithelial human pancreatic adenocarcinoma cells (4).\n(§3) Dipyridamole inhibits adenosine uptake by erythrocytes platelets and endothelial cells in vitro and in vivo. Thus, the present inventors recruited dipyridamole as an inhibitor of the nucleoside transporters of the tumour cells to observe the behaviour of the presently described Gemcitabine derivatives.\n(§4) From the IC50 of each compound in the presence of dipyridamole, by dividing it with the IC50 of each compound in the absence of dipyridamole, the present inventors calculated a ratio that compared the efficacy of the analogous presence of dipyridamole.\n(§5) Ratio=IC50 in the presence of dipyridamole/IC50 in the absence of dipyridamole • FIG. 10. Ratio of IC50 of 4-N-acyl and 4-N-phosphoryl derivatives in the presence of, compared to in the absence of, dipyridamole, in four cell lines"}, "[2]": {"system": "BXPC-3 epithelial human pancreatic adenocarcinoma cells", "assay": "Cell growth assay (SRB) in BXPC-3", "type": "cell-based", "method": "as §1, §2, §3, §4, §5"}, "Human plasma stability": {"assay": "Human plasma stability", "type": "in vitro ADME", "conditions": "37° C., 24 hours incubation, 0.1 μM, triplicates", "method": "Human plasma stability of 4-N-ethyl carbamate\n1. The final concentration of 4-N-ethyl carbamate Gemcitabine in human plasma was 0.1 μM.\n2. Each sample was studied in triplicates.\n3. The time points during incubation in which the present inventors evaluated the concentration of derivative were: 0, 1, 2, 4, 18 and 24 hours (FIG. 16). The derivative was stable after 24 hours incubation (96% still remaining).\n4. A calibration curve was designed in order to quantify the concentration of derivative in human plasma (FIG. 17). Five calibrators were used at concentrations range of 0.01, 0.05, 0.1, 0.2 and 0.4 μM. Coefficient of determination (r^2) was calculated 0.999418.\n5. Accuracy in terms of trueness and precision was evaluated through the analysis of three replicates at three concentration levels (low: 0.025 μM, mid: 0.08 μM and high: 0.3 μM). The trueness was expressed as the percentage difference between the calculated concentrations and the theoretical prepared concentrations while precision was expressed as CV%.\n6. LOQ was determined at 0.01 μM with trueness and precision 8.49% and 9.66% respectively and within the acceptable limits for LOQ (<20%).\nFIG. 17. In vitro stability of Ethyl-(4-N-Gemcitabine) carbamate (derivative 1) after 24 h incubation in human plasma at 37° C."}, "[3]": {"system": "SW1573/WT wild type non-small lung human cell line", "assay": "Cell growth assay (SRB) in SW1573/WT", "type": "cell-based", "method": "as §1, §2, §3, §4, §5"}, "[4]": {"system": "PANC-01 human pancreatic cancer cell line", "assay": "Cell growth assay (SRB) in PANC-01", "type": "cell-based", "method": "as §1, §2, §3, §4, §5"}}}
{"smiles": "CCOC(=O)Nc1ccn(C2OC(CO)C(O)C2(F)F)c(=O)n1", "note": "(stereo not drawn) [Derivative 1, Ethyl-(4-N-Gemcitabine) carbamate]", "values": [{"measurement": "Ratio of IC50 in the presence of dipyridamole / IC50 in the absence of dipyridamole", "setting": "[1]; A549/WT, 4-N-acyl and 4-N-phosphoryl derivatives (Table 5)", "value": 16.2}, {"measurement": "IC50", "setting": "[1]; Homo sapiens, A549, A549/WT, 4-N-acyl and 4-N-phosphoryl derivatives (Table 4)", "value": 1600, "unit": "nM"}, {"measurement": "Ratio of IC50 in the presence of dipyridamole / IC50 in the absence of dipyridamole", "setting": "[2]; BXPC-3, 4-N-acyl and 4-N-phosphoryl derivatives (Table 5)", "value": 23.2}, {"measurement": "IC50", "setting": "[2]; Homo sapiens, BXPC-3, BXPC-3, 4-N-acyl and 4-N-phosphoryl derivatives (Table 4)", "value": 860, "unit": "nM"}, {"measurement": "still remaining after incubation in human plasma", "setting": "Human plasma stability", "value": 96, "unit": "%"}, {"measurement": "IC50", "setting": "[3]; Homo sapiens, SW1573, SW 1573/WT, 4-N-acyl and 4-N-phosphoryl derivatives (Table 4)", "value": 1150, "unit": "nM"}, {"measurement": "Ratio of IC50 in the presence of dipyridamole / IC50 in the absence of dipyridamole", "setting": "[3]; SW 1573/WT, 4-N-acyl and 4-N-phosphoryl derivatives (Table 5)", "value": 21}, {"measurement": "Ratio of IC50 in the presence of dipyridamole / IC50 in the absence of dipyridamole", "setting": "[4]; 4-N-acyl and 4-N-phosphoryl derivatives (Table 5)", "value": 4.1}, {"measurement": "IC50", "setting": "[4]; Homo sapiens, Pancreatic cancer cell, 4-N-acyl and 4-N-phosphoryl derivatives (Table 4)", "value": 3900, "unit": "nM"}]}
